This is an account of results in US20240287070A1, “FUSED HETEROCYCLIC DERIVATIVES” (Janssen Sciences Ireland Unlimited Company, priority 2021, published 2024).

SMILES strings stand for the structures.

Data set [1] deals with HBV (HepG2.117 cell line, inducibly HBV producing). As to the kind of experiment: Anti-HBV activity, intracellular HBV DNA by real-time PCR in HepG2.117 cell line. Type of data set: cell-based, hepatitis B virus. The note with it: HepG2.117 cells, 3 days of treatment. In a few lines:
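Read-out is intracellular HBV DNA, measured by real-time PCR using HBV-specific primers and probe. Cells were stable, inducible HBV-producing HepG2.117 (Tet-off). Serially diluted compound was applied for 3 days after replication was induced.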
Background: Real-time PCR tracks product formation cycle by cycle.

The nature of data set [2]: Cytotoxicity, ATPlite Luminescence Assay. Type of data set: cell-based, human. As to conditions: human, HepG2 or HepG2.117 cells, 3-days incubation unless marked with *. The procedure, abridged: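 Viability after compound treatment is read as ATP luminescence. Exposure lasts 3 or 4 days.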
In general terms: ATP-based viability assays read luminescence as a measure of living cells.

Data set [3] can be described thus: Human liver microsome stability. Type of data set: in vitro ADME. As to conditions: 1 μM compound, NADPH 1 mM, 37° C., 0-60 min; for half-life at 1 μM: human, pooled human liver microsomes, pH 7.4, pooled human liver microsomes 0.5 mg/mL, read-out: HLM Metabolism t1/2. In a few lines: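 Single incubations with human liver microsomes started with 1 mM NADPH; samples taken at 0, 5, 10, 20, 40 and 60 min, quenched in acetonitrile (1:3). Cassette LC-MS analysis with internal standard; t½ derived from slope of ln peak-area ratio versus time (k = −gradient).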
On the technique in general: Microsomes from liver hold many membrane-bound enzymes, among them those of drug oxidation.

[4] abbreviates: Hepatitis B virus, HepG2.117, 72 h.

For orientation: EC50 means the concentration giving half of the maximal effect. Usually CC50 stands for the concentration at which the toxic effect on the cells reaches its halfway point. A lower CC50 goes with greater toxicity to the cells. As to `CC(c1ccc(-n2cncn2)cc1)N1C[C@@H](C)n2nc3c(c2C1=O)CN(C(=O)c1ccc(Cl)c(C#N)c1)[C@H](C)C3` (single isomer, unassigned) [Compound 11A, 5-((3R,7R)-9-((R*)-1-(4-(1H-1,2,4-Triazol-1-yl)phenyl)ethyl)-3,7-dimethyl-10-oxo-1,2,3,4,7,8,9,10-octahydropyrido[4′,3′:3,4]pyrazolo[1,5-a]pyrazine-2-carbonyl)-2-chlorobenzonitrile], it took 0.039 µM to reach a half-maximal effect in data set [1] (setting [4]) (EC50). This compound displayed a half-maximal cytotoxic concentration (CC50) at 3 days in data set [2] of over 50 µM. Also, the half-life at 1 μM in data set [3] is over 3 h.

Compound `CC(c1ccc(C2(O)CC2)cc1)N1C[C@@H](C)n2nc3c(c2C1=O)CN(C(=O)c1ccc(Cl)c(C#N)c1)[C@H](C)C3` (single isomer, unassigned) [Compound 14A, 2-Chloro-5-((3R,7R)-9-((R*)-1-(4-(1-hydroxycyclopropyl)phenyl)ethyl)-3,7-dimethyl-10-oxo-1,2,3,4,7,8,9,10-octahydropyrido[4′,3′:3,4]pyrazolo[1,5-a]pyrazine-2-carbonyl)benzonitrile] returned a concentration giving a half-maximal response (EC50) in data set [1] (setting [4]) of 0.012 µM. Also, the CC50 at 3 days in data set [2] was over 50 µM. In addition, the half-life at 1 μM in data set [3] stood at 1.37 h.

In data set [1] (setting [4]), `C[C@@H]1Cc2nn3c(c2CN1C(=O)c1ccc(Cl)c(C(F)(F)F)c1)C(=O)N([C@@H](C)c1ccc([S@](C)(=N)=O)cc1)C[C@H]3C` (relative stereo) [Compound 19C, (3R,7R)-2-(4-chloro-3-(trifluoromethyl)benzoyl)-3,7-dimethyl-9-((S*)-1-(4-((R*)—S-methylsulfonimidoyl)phenyl)ethyl)-1,2,3,4,8,9-hexahydropyrido[4′,3′:3,4]pyrazolo[1,5-a]pyrazin-10(7H)-one] registered a concentration for a half-maximal effect (EC50) of 0.011 µM. In data set [2], this compound returned a 50% cytotoxic concentration (CC50) at 3 days of over 50 µM. Besides, the half-life at 1 μM in data set [3] is over 3 h.

In data set [1], `CC(c1cnc(C(F)(F)F)nc1)N1C[C@@H](C)n2nc3c(c2C1=O)CN(C(=O)c1ccc(Cl)c(Cl)c1)[C@H](C)C3` (single isomer, unassigned) [Compound 34A, (3R,7R)-2-(3,4-dichlorobenzoyl)-3,7-dimethyl-9-((R*)-1-(2-(trifluoromethyl)pyrimidin-5-yl)ethyl)-1,2,3,4,8,9-hexahydropyrido[4′,3′:3,4]pyrazolo[1,5-a]pyrazin-10(7H)-one] had a concentration giving a half-maximal response (EC50) of 0.63 µM. The cytotoxic concentration (CC50) at 3 days in data set [2] was over 50 µM. The half-life at 1 μM in data set [3] is over 3 h.

Turning to `CC(c1ncc(C(F)(F)F)cn1)N1C[C@@H](C)n2nc3c(c2C1=O)CN(C(=O)c1ccc(Cl)c(Cl)c1)[C@H](C)C3` (single isomer, unassigned) [Compound 40A, (3R,7R)-2-(3,4-dichlorobenzoyl)-3,7-dimethyl-9-((R*)-1-(5-(trifluoromethyl)pyrimidin-2-yl)ethyl)-1,2,3,4,8,9-hexahydropyrido[4′,3′:3,4]pyrazolo[1,5-a]pyrazin-10(7H)-one], in data set [1], the EC50 came out at 0.054 µM. The same compound gave a CC50 at 3 days in data set [2] of 22 µM. In addition, the half-life at 1 μM in data set [3] is over 3 h.

The compound `CC(c1ncccn1)N1C[C@@H](C)n2nc3c(c2C1=O)CN(C(=O)c1ccc(Cl)c(Cl)c1)[C@H](C)C3` (single isomer, unassigned) [Compound 39A, (3R,7R)-2-(3,4-dichlorobenzoyl)-3,7-dimethyl-9-((R*)-1-(pyrimidin-2-yl)ethyl)-1,2,3,4,8,9-hexahydropyrido[4′,3′:3,4]pyrazolo[1,5-a]pyrazin-10(7H)-one] had a 50% effective concentration (EC50) in data set [1] of 0.13 µM. The CC50 at 3 days in data set [2] is over 50 µM. Also, in data set [3], the half-life at 1 μM was found to be 1.59 h.

As to `CC(c1ccc(C(C)(C)O)nc1)N1C[C@@H](C)n2nc3c(c2C1=O)CN(C(=O)c1cc(Cl)c(Cl)cn1)[C@H](C)C3` (single isomer, unassigned) [Compound 57A, (3R,7R)-2-(4,5-dichloropicolinoyl)-9-((R*)-1-(6-(2-hydroxypropan-2-yl)pyridin-3-yl)ethyl)-3,7-dimethyl-1,2,3,4,8,9-hexahydropyrido[4′,3′:3,4]pyrazolo[1,5-a]pyrazin-10(7H)-one], the half-maximal effective concentration (EC50) in data set [1] is over 2.5 µM. Moreover, in data set [2], the CC50 at 3 days is over 50 µM. In addition, the half-life at 1 μM in data set [3] is over 3 h.

`Cc1ncnn1-c1ccc([C@H](C)N2C[C@@H](C)n3nc4c(c3C2=O)CN(C(=O)c2ccc(Cl)c(Cl)c2)[C@H](C)C4)cn1` (relative stereo) [Compound 25B, (3R,7R)-2-(3,4-dichlorobenzoyl)-3,7-dimethyl-9-((S*)-1-(6-(5-methyl-11H-1,2,4-triazol-1-yl)pyridin-3-yl)ethyl)-1,2,3,4,8,9-hexahydropyrido[4′,3′:3,4]pyrazolo[1,5-a]pyrazin-10(7H)-one] returned an EC50 in data set [1] (setting [4]) of 0.017 µM. For the same compound, the CC50 at 3 days in data set [2] was over 50 µM. In addition, the half-life at 1 μM in data set [3] stood at 1.49 h.

As to `C[C@@H]1Cc2nn3c(c2CN1C(=O)c1ccc(Cl)c(Cl)c1)C(=O)N([C@@H](C)c1ccc([S@@](C)(=N)=O)cc1)C[C@H]3C` (relative stereo) [Compound 18D, (3R,7R)-2-(3,4-dichlorobenzoyl)-3,7-dimethyl-9-((S*)-1-(4-((S*)—S-methylsulfonimidoyl)phenyl)ethyl)-1,2,3,4,8,9-hexahydropyrido[4′,3′:3,4]pyrazolo[1,5-a]pyrazin-10(7H)-one], in data set [1] (setting [4]), the response was half-maximal at 0.024 µM (EC50). In data set [2], this compound showed a CC50 at 3 days of over 50 µM. For the same compound, the half-life at 1 μM in data set [3] was over 3 h.

For `CC(c1ccc(-c2ccn(C)n2)cc1)N1C[C@@H](C)n2nc3c(c2C1=O)CN(C(=O)c1ccc(Cl)c(C#N)c1)[C@H](C)C3` (single isomer, unassigned) [Compound 21A, 2-Chloro-5-((3R,7R)-3,7-dimethyl-9-((R*)-1-(4-(1-methyl-1H-pyrazol-3-yl)phenyl)ethyl)-10-oxo-1,2,3,4,7,8,9,10-octahydropyrido[4′,3′:3,4]pyrazolo[1,5-a]pyrazine-2-carbonyl)benzonitrile], the concentration for a half-maximal effect (EC50) in data set [1] is 0.035 µM. Besides, the CC50 at 3 days in data set [2] was over 50 µM. Besides, the “HLM Metabolism t1/2” value in data set [3] (pooled human liver microsomes 0.5 mg/mL) was 0.98 h.

Regarding `CC(c1cc(F)ccn1)N1C[C@@H](C)n2nc3c(c2C1=O)CN(C(=O)c1ccc(Cl)c(Cl)c1)[C@H](C)C3` (single isomer, unassigned) [Compound 32A], in data set [1], the response was half-maximal at 0.016 µM (EC50). Moreover, the cytotoxic concentration (CC50) at 3 days in data set [2] is over 50 µM. The half-life at 1 μM in data set [3] is 1.68 h.

On to `C[C@@H]1Cc2nn3c(c2CN1C(=O)c1ccc(Cl)c(C(F)(F)F)c1)C(=O)N([C@H](C)c1ccc([S@](C)(=N)=O)cc1)C[C@H]3C` (relative stereo) [Compound 19A, (3R,7R)-2-(4-chloro-3-(trifluoromethyl)benzoyl)-3,7-dimethyl-9-((R*)-1-(4-((R*)—S-methylsulfonimidoyl)phenyl)ethyl)-1,2,3,4,8,9-hexahydropyrido[4′,3′:3,4]pyrazolo[1,5-a]pyrazin-10(7H)-one], for which, in data set [1] (setting [4]), the midpoint of the response, the EC50, lay at 0.026 µM. This compound returned a cytotoxic concentration (CC50) at 3 days in data set [2] of over 50 µM. For the same compound, the half-life at 1 μM in data set [3] was over 3 h.

The compound `C[C@@H]1Cc2nn3c(c2CN1C(=O)c1ccc(Cl)c(Cl)c1)C(=O)N([C@H](C)c1ccc([S@@](C)(=N)=O)cc1)C[C@H]3C` (relative stereo) [Compound 18B, (3R,7R)-2-(3,4-dichlorobenzoyl)-3,7-dimethyl-9-((R*)-1-(4-((S*)—S-methylsulfonimidoyl)phenyl)ethyl)-1,2,3,4,8,9-hexahydropyrido[4′,3′:3,4]pyrazolo[1,5-a]pyrazin-10(7H)-one] gave a 50% effective concentration (EC50) in data set [1] (setting [4]) of 0.031 µM. Further, the CC50 at 3 days in data set [2] was over 50 µM. Further, the half-life at 1 μM in data set [3] is over 3 h.

The compound `CC(c1ccc(C(C)(C)O)nc1)N1C[C@@H](C)n2nc3c(c2C1=O)CN(C(=O)c1ccc(Cl)c(F)c1F)[C@H](C)C3` (single isomer, unassigned) [Compound 61A, (3R,7R)-2-(4-chloro-2,3-difluorobenzoyl)-9-((R*)-1-(6-(2-hydroxypropan-2-yl)pyridin-3-yl)ethyl)-3,7-dimethyl-1,2,3,4,8,9-hexahydropyrido[4′,3′:3,4]pyrazolo[1,5-a]pyrazin-10(7H)-one] showed an EC50 in data set [1] of 2.34 µM. Further, the CC50 at 3 days in data set [2] was over 50 µM. In addition, the half-life at 1 μM in data set [3] was over 3 h.

Compound `CC(c1ccc(C(C)(C)O)nc1)N1C[C@@H](C)n2nc3c(c2C1=O)CN(C(=O)c1ccc(Cl)c(C(F)(F)F)n1)[C@H](C)C3` (single isomer, unassigned) [Compound 62A, (3R,7R)-2-(5-chloro-6-(trifluoromethyl)picolinoyl)-9-((R*)-1-(6-(2-hydroxypropan-2-yl)pyridin-3-yl)ethyl)-3,7-dimethyl-1,2,3,4,8,9-hexahydropyrido[4′,3′:3,4]pyrazolo[1,5-a]pyrazin-10(7H)-one] had an EC50 in data set [1] of 0.61 µM. Further, the cytotoxic concentration (CC50) at 3 days in data set [2] was over 50 µM. For the same compound, in data set [3], the half-life at 1 μM was over 3 h.

`CN=[S@@](C)(=O)c1ccc([C@@H](C)N2C[C@@H](C)n3nc4c(c3C2=O)CN(C(=O)c2ccc(Cl)c(Cl)c2)[C@H](C)C4)cn1` (relative stereo) [Compound 29B, (3R,7R)-2-(3,4-dichlorobenzoyl)-9-((R*)-1-(6-((S*)—N,S-dimethylsulfonimidoyl)pyridin-3-yl)ethyl)-3,7-dimethyl-1,2,3,4,8,9-hexahydropyrido[4′,3′:3,4]pyrazolo[1,5-a]pyrazin-10(7H)-one]: in data set [1] (setting [4]), the concentration for a half-maximal effect (EC50) came to 0.81 µM. Besides, the 50% cytotoxic concentration (CC50) at 3 days in data set [2] was over 50 µM. The half-life at 1 μM in data set [3] is over 3 h.
